Test results taken from patent publication US20230257396A1, “MACROCYCLES AND THEIR USE” (BLOSSOMHILL THERAPEUTICS, INC., priority 2020, published 2023).
Each block holds one compound with its values, some of them ahead of it.

Columns and labels:
Assay in all cases: KINOMEscan kinase binding assay (Eurofins/DiscoveRx), % Ctrl
Conditions in all cases: 1 μM
kinases [1] = target: T1, kinases (Homo sapiens, UniProt P00519, F317I)
T1 construct: purchased Eurofins/DiscoveRx; host or cells: E. coli BL21-derived host (T7 phage display) for most kinases; HEK-293 for the rest
In short: (§1)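 Competition binding: DNA- or phage-tagged kinases (T7 phage in E. coli BL21, or HEK-293-expressed) with immobilized biotinylated ligand beads and test compound, 1 h at room temperature. Bead-bound kinase eluted and quantified by qPCR; % Ctrl = (compound − positive control)/(negative control − positive control) ×100 at a single compound concentration.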

kinases [2] = target: T2, kinases (Homo sapiens, UniProt P07949, M918T)
T2 construct: purchased Eurofins/DiscoveRx; host or cells: E. coli BL21-derived host (T7 phage display) for most kinases; HEK-293 for the rest
In short: as §1

kinases [3] = target: T3, kinases (Homo sapiens, UniProt P00533)
T3 construct: purchased Eurofins/DiscoveRx; host or cells: E. coli BL21-derived host (T7 phage display) for most kinases; HEK-293 for the rest
In short: as §1

kinases [4] = target: T4, kinases (Homo sapiens, UniProt P10721, L576P)
T4 construct: purchased Eurofins/DiscoveRx; host or cells: E. coli BL21-derived host (T7 phage display) for most kinases; HEK-293 for the rest
In short: as §1

kinases [5] = target: T5, kinases (Homo sapiens, UniProt P35916)
T5 construct: purchased Eurofins/DiscoveRx; host or cells: E. coli BL21-derived host (T7 phage display) for most kinases; HEK-293 for the rest
In short: as §1

kinases [6] = target: T6, kinases (Homo sapiens, UniProt P00519)
T6 construct: purchased Eurofins/DiscoveRx; host or cells: E. coli BL21-derived host (T7 phage display) for most kinases; HEK-293 for the rest
In short: as §1

kinases [7] = target: T7, kinases (Homo sapiens, UniProt P00533, L858R)
T7 construct: purchased Eurofins/DiscoveRx; host or cells: E. coli BL21-derived host (T7 phage display) for most kinases; HEK-293 for the rest
In short: as §1

kinases [8] = target: T8, kinases (Homo sapiens, UniProt P07949, V804L)
T8 construct: purchased Eurofins/DiscoveRx; host or cells: E. coli BL21-derived host (T7 phage display) for most kinases; HEK-293 for the rest
In short: as §1

kinases [9] = target: T9, kinases (Homo sapiens, UniProt P00533, L861Q)
T9 construct: purchased Eurofins/DiscoveRx; host or cells: E. coli BL21-derived host (T7 phage display) for most kinases; HEK-293 for the rest
In short: as §1

kinases [10] = target: T10, kinases (Homo sapiens, UniProt P00519, H396P)
T10 construct: purchased Eurofins/DiscoveRx; host or cells: E. coli BL21-derived host (T7 phage display) for most kinases; HEK-293 for the rest
In short: as §1

kinases [11] = target: T11, kinases (Homo sapiens, UniProt P10721, V559D/V654A)
T11 construct: purchased Eurofins/DiscoveRx; host or cells: E. coli BL21-derived host (T7 phage display) for most kinases; HEK-293 for the rest
In short: as §1

kinases [12] = target: T12, kinases (Homo sapiens, UniProt P36888)
T12 construct: purchased Eurofins/DiscoveRx; host or cells: E. coli BL21-derived host (T7 phage display) for most kinases; HEK-293 for the rest
T12 sequence (P36888 27-993): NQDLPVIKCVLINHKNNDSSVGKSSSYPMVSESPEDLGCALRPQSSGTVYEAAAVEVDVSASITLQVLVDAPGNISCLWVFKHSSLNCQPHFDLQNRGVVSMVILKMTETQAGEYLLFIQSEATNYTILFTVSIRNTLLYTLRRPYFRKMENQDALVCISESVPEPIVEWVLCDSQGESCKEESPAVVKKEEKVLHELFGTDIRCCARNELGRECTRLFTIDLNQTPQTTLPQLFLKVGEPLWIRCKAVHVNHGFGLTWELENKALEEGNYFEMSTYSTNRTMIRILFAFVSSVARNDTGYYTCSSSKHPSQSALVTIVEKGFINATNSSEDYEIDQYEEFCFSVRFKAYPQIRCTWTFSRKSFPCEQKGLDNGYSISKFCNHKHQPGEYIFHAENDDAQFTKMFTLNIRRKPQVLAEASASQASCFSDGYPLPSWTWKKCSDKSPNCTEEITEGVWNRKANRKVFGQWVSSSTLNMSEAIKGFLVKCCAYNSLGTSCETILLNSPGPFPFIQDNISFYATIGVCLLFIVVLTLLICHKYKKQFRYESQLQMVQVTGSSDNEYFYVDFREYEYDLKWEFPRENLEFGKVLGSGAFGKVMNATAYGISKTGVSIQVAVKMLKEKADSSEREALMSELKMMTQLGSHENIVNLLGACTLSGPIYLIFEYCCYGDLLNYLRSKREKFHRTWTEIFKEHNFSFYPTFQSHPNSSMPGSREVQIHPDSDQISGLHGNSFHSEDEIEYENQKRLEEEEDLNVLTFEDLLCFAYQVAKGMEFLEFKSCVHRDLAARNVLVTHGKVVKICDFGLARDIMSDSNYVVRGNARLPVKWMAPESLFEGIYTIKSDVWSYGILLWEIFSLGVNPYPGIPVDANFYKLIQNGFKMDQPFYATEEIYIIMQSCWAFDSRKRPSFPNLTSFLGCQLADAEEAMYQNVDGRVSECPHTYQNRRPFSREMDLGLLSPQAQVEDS
In short: as §1

kinases [13] = target: T13, kinases (Homo sapiens, UniProt P09619)
T13 construct: purchased Eurofins/DiscoveRx; host or cells: E. coli BL21-derived host (T7 phage display) for most kinases; HEK-293 for the rest
In short: as §1

kinases [14] = target: T14, kinases (Homo sapiens, UniProt P00533, L858R/T790M)
T14 construct: purchased Eurofins/DiscoveRx; host or cells: E. coli BL21-derived host (T7 phage display) for most kinases; HEK-293 for the rest
In short: as §1

kinases [15] = target: T15, kinases (Homo sapiens, UniProt P00519, Y253F)
T15 construct: purchased Eurofins/DiscoveRx; host or cells: E. coli BL21-derived host (T7 phage display) for most kinases; HEK-293 for the rest
In short: as §1

T5 sequence (P35916 25-1363): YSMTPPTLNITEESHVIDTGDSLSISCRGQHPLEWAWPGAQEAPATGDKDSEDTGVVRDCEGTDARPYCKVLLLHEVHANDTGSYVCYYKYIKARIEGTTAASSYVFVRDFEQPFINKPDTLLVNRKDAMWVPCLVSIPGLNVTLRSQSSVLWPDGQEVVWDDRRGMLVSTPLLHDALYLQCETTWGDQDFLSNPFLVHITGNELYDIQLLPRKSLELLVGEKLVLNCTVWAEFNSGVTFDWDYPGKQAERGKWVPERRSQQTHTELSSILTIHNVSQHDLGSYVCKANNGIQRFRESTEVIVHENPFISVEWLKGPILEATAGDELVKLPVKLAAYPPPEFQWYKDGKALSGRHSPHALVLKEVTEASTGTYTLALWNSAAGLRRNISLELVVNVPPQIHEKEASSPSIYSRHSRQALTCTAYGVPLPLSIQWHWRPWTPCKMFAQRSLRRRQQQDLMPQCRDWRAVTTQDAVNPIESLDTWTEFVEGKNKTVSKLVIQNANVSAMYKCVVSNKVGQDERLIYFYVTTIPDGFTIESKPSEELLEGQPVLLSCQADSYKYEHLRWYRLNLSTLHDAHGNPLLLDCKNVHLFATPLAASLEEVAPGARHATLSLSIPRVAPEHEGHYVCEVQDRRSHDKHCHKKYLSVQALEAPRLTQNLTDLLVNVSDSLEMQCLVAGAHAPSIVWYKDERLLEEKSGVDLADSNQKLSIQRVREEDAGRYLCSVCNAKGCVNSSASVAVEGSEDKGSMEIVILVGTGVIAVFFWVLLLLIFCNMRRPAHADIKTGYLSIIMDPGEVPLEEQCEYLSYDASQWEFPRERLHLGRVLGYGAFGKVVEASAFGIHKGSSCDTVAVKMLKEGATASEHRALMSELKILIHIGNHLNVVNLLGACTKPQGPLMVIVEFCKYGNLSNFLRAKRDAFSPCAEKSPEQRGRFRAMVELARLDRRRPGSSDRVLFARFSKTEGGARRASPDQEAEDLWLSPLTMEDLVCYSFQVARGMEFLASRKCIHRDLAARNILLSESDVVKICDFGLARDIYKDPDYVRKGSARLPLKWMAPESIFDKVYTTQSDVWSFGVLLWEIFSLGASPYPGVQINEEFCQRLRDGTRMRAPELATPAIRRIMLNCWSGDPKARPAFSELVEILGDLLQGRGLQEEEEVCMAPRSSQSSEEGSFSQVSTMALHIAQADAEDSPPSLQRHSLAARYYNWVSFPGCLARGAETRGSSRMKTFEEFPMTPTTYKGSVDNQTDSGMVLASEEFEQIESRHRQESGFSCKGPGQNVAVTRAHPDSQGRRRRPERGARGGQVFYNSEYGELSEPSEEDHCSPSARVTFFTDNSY
T4 sequence (P10721 26-976 L576P): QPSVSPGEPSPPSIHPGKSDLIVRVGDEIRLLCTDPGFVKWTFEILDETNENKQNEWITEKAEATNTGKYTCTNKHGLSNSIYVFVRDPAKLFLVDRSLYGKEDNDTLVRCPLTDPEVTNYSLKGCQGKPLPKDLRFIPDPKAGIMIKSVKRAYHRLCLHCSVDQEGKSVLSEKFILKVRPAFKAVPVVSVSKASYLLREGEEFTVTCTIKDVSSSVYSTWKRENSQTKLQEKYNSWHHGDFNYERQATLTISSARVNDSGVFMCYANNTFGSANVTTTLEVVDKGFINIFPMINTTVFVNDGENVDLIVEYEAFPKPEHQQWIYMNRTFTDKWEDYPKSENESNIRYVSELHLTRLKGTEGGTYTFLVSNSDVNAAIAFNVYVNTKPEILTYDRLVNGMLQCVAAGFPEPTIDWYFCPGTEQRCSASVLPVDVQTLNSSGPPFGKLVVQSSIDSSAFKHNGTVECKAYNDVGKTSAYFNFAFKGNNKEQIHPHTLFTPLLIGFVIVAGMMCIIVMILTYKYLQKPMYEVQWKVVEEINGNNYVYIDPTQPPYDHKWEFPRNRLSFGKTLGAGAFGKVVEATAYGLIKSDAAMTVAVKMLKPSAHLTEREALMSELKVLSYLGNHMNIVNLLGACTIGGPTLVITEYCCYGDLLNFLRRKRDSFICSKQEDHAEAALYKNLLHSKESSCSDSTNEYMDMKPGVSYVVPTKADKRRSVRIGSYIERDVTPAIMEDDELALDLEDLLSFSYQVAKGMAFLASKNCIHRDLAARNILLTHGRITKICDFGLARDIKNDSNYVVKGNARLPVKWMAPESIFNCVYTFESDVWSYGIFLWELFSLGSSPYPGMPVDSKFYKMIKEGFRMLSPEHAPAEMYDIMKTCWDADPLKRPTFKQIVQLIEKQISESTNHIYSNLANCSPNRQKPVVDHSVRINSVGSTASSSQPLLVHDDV
T13 sequence (P09619 33-1106): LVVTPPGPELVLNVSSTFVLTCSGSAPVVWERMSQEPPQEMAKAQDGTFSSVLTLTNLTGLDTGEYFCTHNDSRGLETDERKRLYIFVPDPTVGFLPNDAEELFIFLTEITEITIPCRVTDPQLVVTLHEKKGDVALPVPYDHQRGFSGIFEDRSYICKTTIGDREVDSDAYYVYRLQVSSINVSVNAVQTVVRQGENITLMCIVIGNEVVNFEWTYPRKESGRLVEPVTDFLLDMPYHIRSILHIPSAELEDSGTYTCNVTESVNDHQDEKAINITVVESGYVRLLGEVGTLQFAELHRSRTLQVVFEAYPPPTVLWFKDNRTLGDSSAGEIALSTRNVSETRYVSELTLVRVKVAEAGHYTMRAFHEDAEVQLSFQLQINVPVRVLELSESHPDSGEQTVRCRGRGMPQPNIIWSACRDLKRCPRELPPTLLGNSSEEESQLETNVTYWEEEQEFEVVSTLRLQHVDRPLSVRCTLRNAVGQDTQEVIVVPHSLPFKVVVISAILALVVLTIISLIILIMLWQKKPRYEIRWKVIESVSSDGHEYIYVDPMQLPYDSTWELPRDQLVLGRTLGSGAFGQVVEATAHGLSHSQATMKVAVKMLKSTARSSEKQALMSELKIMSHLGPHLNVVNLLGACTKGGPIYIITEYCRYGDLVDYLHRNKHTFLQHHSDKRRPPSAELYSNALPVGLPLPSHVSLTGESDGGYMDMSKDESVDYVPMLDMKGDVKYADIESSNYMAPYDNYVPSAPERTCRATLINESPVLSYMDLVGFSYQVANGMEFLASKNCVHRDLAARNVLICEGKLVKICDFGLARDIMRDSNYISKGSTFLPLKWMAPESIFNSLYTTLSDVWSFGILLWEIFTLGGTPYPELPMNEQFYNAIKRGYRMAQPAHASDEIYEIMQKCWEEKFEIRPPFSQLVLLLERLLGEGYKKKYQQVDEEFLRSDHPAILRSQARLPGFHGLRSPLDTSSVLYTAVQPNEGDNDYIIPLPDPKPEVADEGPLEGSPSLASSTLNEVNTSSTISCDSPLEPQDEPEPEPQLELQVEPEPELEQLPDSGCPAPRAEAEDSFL
T8 sequence (P07949 29-1114 V804L): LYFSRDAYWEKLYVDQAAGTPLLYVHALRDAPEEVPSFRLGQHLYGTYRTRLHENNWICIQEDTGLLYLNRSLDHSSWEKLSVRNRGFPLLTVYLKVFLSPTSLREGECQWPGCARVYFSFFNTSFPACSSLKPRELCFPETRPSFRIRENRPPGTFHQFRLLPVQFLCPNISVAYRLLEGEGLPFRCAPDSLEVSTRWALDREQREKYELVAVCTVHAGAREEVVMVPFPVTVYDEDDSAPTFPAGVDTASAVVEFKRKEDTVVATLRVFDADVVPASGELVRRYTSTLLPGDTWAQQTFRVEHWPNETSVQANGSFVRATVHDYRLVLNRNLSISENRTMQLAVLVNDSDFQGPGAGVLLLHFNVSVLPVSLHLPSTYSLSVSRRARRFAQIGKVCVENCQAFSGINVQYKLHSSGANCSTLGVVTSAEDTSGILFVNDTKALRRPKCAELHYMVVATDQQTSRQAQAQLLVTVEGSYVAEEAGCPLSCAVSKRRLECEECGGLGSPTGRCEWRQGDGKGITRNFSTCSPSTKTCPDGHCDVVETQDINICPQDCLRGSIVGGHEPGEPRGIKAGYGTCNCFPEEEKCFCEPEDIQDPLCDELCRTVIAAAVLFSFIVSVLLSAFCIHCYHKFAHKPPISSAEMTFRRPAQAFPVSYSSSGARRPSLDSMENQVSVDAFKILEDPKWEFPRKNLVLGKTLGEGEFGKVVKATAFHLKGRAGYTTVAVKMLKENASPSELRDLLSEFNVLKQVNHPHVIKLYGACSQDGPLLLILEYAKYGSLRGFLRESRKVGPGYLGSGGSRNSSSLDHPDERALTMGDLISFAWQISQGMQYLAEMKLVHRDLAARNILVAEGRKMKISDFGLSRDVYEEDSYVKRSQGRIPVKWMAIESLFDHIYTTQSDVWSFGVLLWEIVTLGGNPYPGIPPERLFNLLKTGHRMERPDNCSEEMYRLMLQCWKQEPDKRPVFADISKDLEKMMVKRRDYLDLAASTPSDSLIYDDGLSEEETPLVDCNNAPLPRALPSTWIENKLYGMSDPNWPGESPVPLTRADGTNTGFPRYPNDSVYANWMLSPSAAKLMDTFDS
T11 sequence (P10721 26-976 V559D/V654A): as the sequence (P10721 26-976 L576P) above, with V534D, P551L, V629A counted along it
T2 sequence (P07949 29-1114 M918T): as the sequence (P07949 29-1114 V804L) above, with L776V, M890T counted along it

- % Ctrl, ABL1(F317I)-nonphosphorylated (kinases [1]; ABL1(F317I)-nonphosphorylated): 54 % Ctrl
- % Ctrl, ABL1(F317I)-phosphorylated (kinases [1]; ABL1(F317I)-phosphorylated): 75 % Ctrl
- % Ctrl, RET(M918T) (kinases [2]; RET(M918T)): 45 % Ctrl
- % Ctrl, EGFR (kinases [3]; EGFR): 62 % Ctrl
- % Ctrl, KIT(L576P) (kinases [4]; KIT(L576P)): 40 % Ctrl
- % Ctrl, FLT4 (kinases [5]; FLT4): 62 % Ctrl
- % Ctrl, ABL1-nonphosphorylated (kinases [6]; ABL1-nonphosphorylated): 7.1 % Ctrl
- % Ctrl, ABL1-phosphorylated (kinases [6]; ABL1-phosphorylated): 56 % Ctrl
- % Ctrl, EGFR(L858R) (kinases [7]; EGFR(L858R)): 93 % Ctrl
- % Ctrl, RET(V804L) (kinases [8]; RET(V804L)): 17 % Ctrl
- % Ctrl, EGFR(L861Q) (kinases [9]; EGFR(L861Q)): 91 % Ctrl
- % Ctrl, ABL1(H396P)-nonphosphorylated (kinases [10]; ABL1(H396P)-nonphosphorylated): 6.1 % Ctrl
- % Ctrl, ABL1(H396P)-phosphorylated (kinases [10]; ABL1(H396P)-phosphorylated): 5 % Ctrl
- % Ctrl, KIT(V559D, V654A) (kinases [11]; KIT(V559D, V654A)): 93 % Ctrl
- % Ctrl, FLT3 (kinases [12]; FLT3): 5.5 % Ctrl
- % Ctrl, FLT3-autoinhibited (kinases [12]; FLT3-autoinhibited): 50 % Ctrl
- % Ctrl, PDGFRB (kinases [13]; PDGFRB): 5.5 % Ctrl
- % Ctrl, EGFR(L858R, T790M) (kinases [14]; EGFR(L858R, T790M)): 17 % Ctrl
- % Ctrl, ABL1(Y253F)-phosphorylated (kinases [15]; ABL1(Y253F)-phosphorylated): 49 % Ctrl
SMILES: Cc1cc2c([nH]1)/C=C1\C(=O)Nc3ccc(cc31)-c1ccnn1CCOCCN(C)C2=O [Ex. 41, [19a(20)Z]-2,5-dimethyl-6,7,9,10-tetrahydro-1H-15,17-(ethanediylidene)pyrazolo[1,5-d]dipyrrolo[3,4-h:2′,3′-k][1,4,14]oxadiazacyclohexadecine-4,19(5H,18H)-dione]

- % Ctrl, ABL1(F317I)-nonphosphorylated (kinases [1]; target ABL1(F317I)-nonphosphorylated): 0.6 % Ctrl
- % Ctrl, ABL1(F317I)-phosphorylated (kinases [1]; target ABL1(F317I)-phosphorylated): 5 % Ctrl
- % Ctrl, RET(M918T) (kinases [2]; target RET(M918T)): 0 % Ctrl
- % Ctrl, EGFR (kinases [3]; target EGFR): 42 % Ctrl
- % Ctrl, KIT(L576P) (kinases [4]; target KIT(L576P)): 0 % Ctrl
- % Ctrl, FLT4 (kinases [5]; target FLT4): 0.1 % Ctrl
- % Ctrl, ABL1-nonphosphorylated (kinases [6]; target ABL1-nonphosphorylated): 0 % Ctrl
- % Ctrl, ABL1-phosphorylated (kinases [6]; target ABL1-phosphorylated): 0 % Ctrl
- % Ctrl, EGFR(L858R) (kinases [7]; target EGFR(L858R)): 52 % Ctrl
- % Ctrl, RET(V804L) (kinases [8]; target RET(V804L)): 0.2 % Ctrl
- % Ctrl, EGFR(L861Q) (kinases [9]; target EGFR(L861Q)): 77 % Ctrl
- % Ctrl, ABL1(H396P)-nonphosphorylated (kinases [10]; target ABL1(H396P)-nonphosphorylated): 0 % Ctrl
- % Ctrl, ABL1(H396P)-phosphorylated (kinases [10]; target ABL1(H396P)-phosphorylated): 0 % Ctrl
- % Ctrl, KIT(V559D, V654A) (kinases [11]; target KIT(V559D, V654A)): 13 % Ctrl
- % Ctrl, FLT3 (kinases [12]; target FLT3): 1.8 % Ctrl
- % Ctrl, FLT3-autoinhibited (kinases [12]; target FLT3-autoinhibited): 12 % Ctrl
- % Ctrl, PDGFRB (kinases [13]; target PDGFRB): 0.9 % Ctrl
- % Ctrl, EGFR(L858R, T790M) (kinases [14]; target EGFR(L858R, T790M)): 37 % Ctrl
- % Ctrl, ABL1(Y253F)-phosphorylated (kinases [15]; target ABL1(Y253F)-phosphorylated): 0.1 % Ctrl
SMILES: Cc1cc2c([nH]1)/C=C1\C(=O)Nc3cc(Cl)c(cc31)SCCOCCN(C)C2=O [Ex. 169, [16a(17)Z]-19-chloro-5-methyl-6,7,9,10-tetrahydro-1H-12,14-(ethanediylidene)dipyrrolo[3,4-g:2′,3′-j][1,4,13]oxathiazacyclopentadecine-4,16(5H,15H)-dione]
